Our source for the IC50 and inhibition values is patent publication EP0857721A1, “ACRIDONE COMPOUNDS” (Eisai Co., Ltd., priority 1995, dated 1997).

Each structure is given as a SMILES string. Read-outs that look alike come from different tables or passages of the source.

The test system of one experiment is human basophils. Nature of the experiment: Inhibition of mediator (histamine, peptide leukotriene) liberation from human basophils stimulated with tick antigen. Format: cell-based. To be noted: leukocyte fraction containing basophils, enzyme immunoassay. The method, then:
To 20 ml of heparinized blood was added 6 ml of 6% dextran (for separating leukocytes, high molecular weight). The obtained mixture was thoroughly stirred and then allowed to stand at 37°C for 30 minutes to thereby sediment erythrocytes. The upper layer was taken out and phosphate-buffered saline was added thereto. The obtained mixture was centrifuged at 185 G for eight minutes to thereby give a crude leukocyte fraction. These cells (leukocyte fraction) were subjected to hypotonic hemolysis and then suspended in D-PBS(+) containing 0.1% of BSA. The cell suspension thus prepared was used in the subsequent experiment as the leukocyte fraction containing basophils.
To 0.4 ml of this cell suspension preliminarily heated at 37°C for 5 minutes was added 0.05 ml of a solution containing each acridone compound of the present invention. The obtained mixture was then allowed to stand at 37°C for 15 minutes so that the cells were pre-treated. Next, 0.05 ml of a tick antigen solution was added thereto to thereby induce an antigen-antibody reaction. Ten minutes thereafter, the antigen-antibody reaction was ceased by ice-cooling. After ceasing the reaction, the mixture was centrifuged at 185 G for ten minutes. The supernatant was taken out and the contents of histamine and a peptide leukotriene therein were determined by using each an enzyme immunoassay kit. Based on the data thus obtained, the activities of the compound of inhibiting the liberation of histamine and peptide leukotriene were determined.

A further experiment concerns RBL-2H3 cells. Briefly: Inhibition of serotonin liberation from IgE-sensitized, antigen-stimulated RBL-2H3 cells ([3H]-serotonin). Type of experiment: cell-based. To be noted: Rattus norvegicus; IgE-sensitized RBL-2H3 cells stimulated with specific antigen; [3H]-labeled serotonin. An excerpt:
Under the action of an antigen specific to the IgE antibody, RBL-2H3 cells, i.e., a cell line originating in rat cells, not only liberate histamine and serotonin but also produce and liberate cytokines such as TNF" serving as an inflammatory mediator and prostaglandins. In this experimental system, the effects of the compounds of the present invention of inhibiting the liberation of various mediators were examined by using serotonin as an indication.
The cells were labeled with [^3H]-labeled serotonin and, at the same time, sensitized with the IgE antibody. Next, these cells were incubated in the presence of the acridone compounds according to the present invention and then stimulated with the specific antigen. Then the serotonin liberation inhibitory activity of each acridone compound was calculated from the amount of the [^3H]-labeled serotonin thus liberated into the medium due to the above-mentioned stimulation and the amount of the [^3H]-labeled serotonin liberated into the medium by the same experimental procedure as the one described above but adding no acridone compound of the present invention.

Experiment [1] deals with T1, tyrosine kinase of 72 kDa (Rattus norvegicus, UniProt Q64725).
T1 construct: the tyrosine kinase of 72 kDa contained in the lysate or cytosol thus prepared; endogenous in cells; host or cells: RBL-2H3 cells (NP-40 lysate or cytosol fraction)
T1 sequence (Q64725 whole entry): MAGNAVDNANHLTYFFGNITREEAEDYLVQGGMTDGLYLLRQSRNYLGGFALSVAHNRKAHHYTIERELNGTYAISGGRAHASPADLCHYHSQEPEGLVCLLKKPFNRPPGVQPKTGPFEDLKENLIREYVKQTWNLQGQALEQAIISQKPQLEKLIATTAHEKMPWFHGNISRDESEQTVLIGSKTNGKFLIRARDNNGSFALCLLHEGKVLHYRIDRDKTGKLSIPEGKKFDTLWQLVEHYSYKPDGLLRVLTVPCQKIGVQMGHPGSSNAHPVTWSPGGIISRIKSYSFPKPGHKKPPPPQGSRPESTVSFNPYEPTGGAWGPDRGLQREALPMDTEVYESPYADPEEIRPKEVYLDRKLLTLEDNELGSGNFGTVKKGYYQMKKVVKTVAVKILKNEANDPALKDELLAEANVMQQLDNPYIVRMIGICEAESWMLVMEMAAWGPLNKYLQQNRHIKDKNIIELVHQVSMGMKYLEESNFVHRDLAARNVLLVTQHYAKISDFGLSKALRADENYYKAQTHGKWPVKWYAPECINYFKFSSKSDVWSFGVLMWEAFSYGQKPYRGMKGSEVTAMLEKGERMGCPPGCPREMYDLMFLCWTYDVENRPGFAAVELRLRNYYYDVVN
Nature of the experiment: Inhibition of phosphorylation (activation) of the 72 kDa tyrosine kinase induced by phosphorylated TAM peptide of IgE receptor γ-chain, western blotting. Format: biochemical. To be noted: Compd. concentration 10 μM; RBL-2H3 lysate or cytosol, TAM peptide 10 µM, ATP 50 µM; tyrosine kinase phosphorylation inhibitory ratio; read-out: Inhibitory potency. The source says:
In this experiment, use was made of RBL-2H3 cells, i.e., a cell line which is generally employed in the studies on the informational transmission system in IgE receptors of mast cells or basophils and a peptide in the tyrosine activation motif (TAM) region containing phosphorylated tyrosine in a human IgE receptor γ chain synthesized by Peputido Kenkyusho K.K..
In this experiment, use was made of a lysate which had been obtained by solubilizing 1 × 10^7 to 5 × 10^7 cells with the use of a solution containing various proteases and NP-40 employed as a solubilizer at a concentration of 1% and a supernatant (as the cytosol fraction of the cells) which had been obtained by disrupting the cells with Down's homogenizer and centrifuging the obtained mixture at 50,000 rpm for 1 hour. The concentrations of the lysate and cytosol of the cells were each adjusted to 1 mg protein/ml with the use of an isotonic buffer. […]
The extent of the activation of this tyrosine kinase was determined by confirming the extent of the phosphorylation of the tyrosine moiety in the tyrosine kinase per se by western blotting with the use of an anti-tyrosine phosphorylation antibody and then numerically expressing the obtained data with an image analyzer. Based on the extent of the phosphorylation thus obtained, the tyrosine kinase phosphorylation inhibitory ratio of the compound 101 was determined.
(In general: Immunoblotting shows a protein as a band on a membrane.)

Setting [2] is: histamine, read-out: IC50 (µM) in mediator liberation from human basophils histamine.
The mark [3] stands for this setting: peptide leukotriene, read-out: IC50 (µM) in mediator liberation from human basophils leukotriene.

Take `Cc1ccc2c(=O)c3ccccc3n(CCCNCc3ccccc3O)c2c1C` [Compound 39]: the figures for the IC50 in the experiment with human basophils (setting [2]), in the experiment on human basophils (setting [3]) and with RBL-2H3 cells were 10 µM, 3 µM and 1 µM, respectively. On to `CNC(=O)Cc1cccc2c1c(=O)c1ccc(C)c(C)c1n2CCCN(C)Cc1ccccc1` [Compound 135], for which the IC50 with human basophils (setting [3]) is 10 to 30 µM; in the experiment with RBL-2H3 cells it was 2 µM.

In the case of `Cc1ccc2c(=O)c3c(C(C)C(=O)O)cccc3n(CCCNCc3ccc(Cl)cc3Cl)c2c1C` (centres unmarked) [Compound 143], the IC50 in the experiment on human basophils (setting [2]) was 30 µM; with human basophils (setting [3]), 10 µM; in the experiment on RBL-2H3 cells it was 1 µM. Take `Cc1ccc2c(=O)c3c(CC(=O)O)cccc3n(CCCN(C)Cc3ccccc3)c2c1C` [Compound 101]: the IC50 in the experiment on human basophils (setting [3]) was 10 to 30 µM; in the experiment with RBL-2H3 cells it was 3 µM. Besides, in experiment [1], the inhibition at 10 µM was found to be 70%. In the case of `COc1c(CNCCCn2c3cccc(CC(=O)O)c3c(=O)c3ccc(C)c(C)c32)ccc(Cl)c1Cl` [Compound 28], the IC50 with human basophils (setting [2]) was 10 µM; with human basophils (setting [3]), 3 µM; in the experiment on RBL-2H3 cells, 1 µM.

For the molecule `Cc1ccc2c(=O)c3c(C(C)C(=O)O)cccc3n(CCCNCc3ccccc3)c2c1C` (centres unmarked) [Compound 141], the IC50 in the experiment with human basophils (setting [2]) was 30 to 100 µM; in the experiment on human basophils (setting [3]), 3 to 10 µM; with RBL-2H3 cells, 1 µM. The corresponding values for `Cc1ccc2c(=O)c3c(CC(=O)O)cccc3n(CCCNCc3ccc(Cl)cc3Cl)c2c1C` [Compound 13] are 10 to 30 µM, 3 to 10 µM and 0.2 µM.

As for `Cc1ccc2c(=O)c3c(CC(=O)O)cccc3n(CCCNCc3ccccc3)c2c1C` [Compound 1], the IC50 in the experiment on human basophils (setting [2]) was 30 µM; with human basophils (setting [3]), 30 to 100 µM; with RBL-2H3 cells, 3 µM. Regarding `Cc1ccc2c(=O)c3ccccc3n(CCCNCc3ccccc3Cl)c2c1C` [Compound 63], the IC50 with RBL-2H3 cells worked out at 10 µM.

For the molecule `Cc1ccc2c(=O)c3c(CC(=O)O)cccc3n(CCCN(C)Cc3ccc(Cl)c(O)c3Cl)c2c1C` [Compound 25], the IC50 in the experiment on RBL-2H3 cells amounted to 6 µM. Still for that read-out and setting: under `CCN(CCCn1c2cccc(CC(=O)O)c2c(=O)c2ccc(C)c(C)c21)Cc1ccccc1` [Compound 91] stands 8 µM. Same read-out and setting: under `Cc1ccc2c(=O)c3ccccc3n(CCCNOCc3ccccc3)c2c1C` [Compound 72] stands 2 µM; under `Cc1ccc2c(=O)c3ccccc3n(CCCNc3cccc(-c4nnn[nH]4)c3)c2c1C` [Compound 80], 11 µM. Take `Cc1ccc2c(=O)c3c(C(C)CC(=O)O)cccc3n(CCCNCc3ccc(Cl)cc3Cl)c2c1C` (centres unmarked) [Compound 9]: the IC50 with RBL-2H3 cells amounted to 10 µM. Same read-out and setting: the figure for `Cc1ccc2c(=O)c3c(CC(=O)O)cccc3n(CCCNCc3ccc(F)c(F)c3)c2c1C` [Compound 103] is 3 µM; for `Cc1ccc2c(=O)c3c(CC(=O)O)cccc3n(CCCNCc3ccccc3Cl)c2c1C` [Compound 105] it is 5 µM. Still for that read-out and setting: under `Cc1ccccc1CNCCCn1c2ccccc2c(=O)c2ccc(C)c(C)c21` [Compound 32] stands 1 µM.
